Values joined by “and” are separate entries in the source; they are usually repeats but may differ in a detail not shown here. Equal entries are not always repeated.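 Test compounds were applied to cells in 96-well plates for 48 hours at 5 doses. The concentration for 50% growth inhibition is given as GI50. TGI: total growth inhibition.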 A value given as a limit tells only on which side of the number the result lay.

8 molecules from PubChem BioAssay (NCI) can be followed below.

Some test systems named below: SNB-19 CNS; OVCAR-4 ovarian; SK-MEL-2 melanoma; NCI-H23 lung; IGROV1 ovarian; HCT-15 colon; LOX IMVI melanoma; DU-145 prostate; SW-620 colon; K-562 leukemia.
Holding throughout (assay): NCI-60 cell line screen, 48 h

As for `O=C1C(=O)c2c(nc3ccc(Br)cn23)-c2ccccc21`, the GI50 was 1.41 µM in the test on SNB-19 CNS; 0.191 µM in the test on OVCAR-4 ovarian; 0.596 µM in the test with SK-MEL-2 melanoma; 0.372 µM in the test with NCI-H23 lung; 1.05 µM in the test with IGROV1 ovarian; 0.759 µM in the test with HCT-15 colon. Moreover, the GI50 in the test with LOX IMVI melanoma was 0.242 µM; in the test on DU-145 prostate it was 0.483 µM; with SW-620 colon, 0.622 µM; in the test with K-562 leukemia, 0.244 µM. In addition, the TGI with SNB-19 CNS worked out at 2.72 µM; with OVCAR-4 ovarian it was 0.398 µM; in the test on SK-MEL-2 melanoma, 1.99 µM; in the test on NCI-H23 lung it was 2.51 µM; in the test on IGROV1 ovarian it was 2.74 µM; in the test with HCT-15 colon, 2.66 µM. Besides, the TGI in the test on LOX IMVI melanoma was found to be 0.689 µM; with DU-145 prostate, 1.03 µM; in the test on SW-620 colon, 1.76 µM; with K-562 leukemia, 1.04 µM.

As to `Cc1ccc(-c2cc3c(SCC(=O)Nc4cc(C(F)(F)F)ccc4Cl)nccn3n2)cc1`, the GI50 with SNB-19 CNS is 30.9 µM; in the test on OVCAR-4 ovarian, 2.86 µM; in the test with SK-MEL-2 melanoma, over 100 µM; in the test with NCI-H23 lung it was over 100 µM; with IGROV1 ovarian, over 100 µM; in the test on HCT-15 colon it was over 100 µM. In addition, the GI50 with LOX IMVI melanoma, in the test on DU-145 prostate, in the test with SW-620 colon and in the test on K-562 leukemia was over 100 µM throughout. In addition, the TGI in the test with SNB-19 CNS, in the test on OVCAR-4 ovarian, in the test with SK-MEL-2 melanoma, in the test on NCI-H23 lung, in the test on IGROV1 ovarian and with HCT-15 colon was over 100 µM each time. In addition, the TGI with LOX IMVI melanoma, with DU-145 prostate, with SW-620 colon and in the test with K-562 leukemia was over 100 µM throughout.

In the case of `C=CC(C1=CC(=O)C(OC)=CC1=O)c1ccccc1` (stereo not given), the TGI in the test with SNB-19 CNS was 29.4 µM; in the test on OVCAR-4 ovarian, 30.1 µM; in the test on SK-MEL-2 melanoma it was 30.3 µM; in the test with NCI-H23 lung it was 32.5 µM; in the test on IGROV1 ovarian it was 30.3 µM; with HCT-15 colon it was 32 µM. In addition, the TGI in the test on LOX IMVI melanoma is 31.7 µM; with DU-145 prostate, 30.2 µM; in the test on SW-620 colon, 48.6 µM; in the test on K-562 leukemia it was 13.2 µM.

As to `COc1ccc(C(=O)COC(=O)[C@H](C[Se][Se]C[C@H](NC(=O)c2ccc(Br)cc2F)C(=O)OCC(=O)c2ccc(OC)cc2)NC(=O)c2ccc(Br)cc2F)cc1`, the GI50 with SNB-19 CNS is 0.427 µM; with OVCAR-4 ovarian, 1.64 µM; with SK-MEL-2 melanoma it was 0.862 µM; in the test on NCI-H23 lung it was 0.412 µM; in the test with IGROV1 ovarian, 0.82 µM; in the test on HCT-15 colon, 1.03 µM. Moreover, the GI50 in the test on LOX IMVI melanoma is 0.914 µM; in the test with DU-145 prostate, 0.843 µM; with SW-620 colon, 1.44 µM; with K-562 leukemia, 3.3 µM. Also, the TGI in the test on SNB-19 CNS was determined as 4.9 µM; with OVCAR-4 ovarian it was 3.1 µM; in the test on SK-MEL-2 melanoma, 2.57 µM; in the test on NCI-H23 lung it was 1.81 µM; with IGROV1 ovarian, 2.62 µM; with HCT-15 colon it was 2.99 µM. For the same molecule, the TGI in the test with LOX IMVI melanoma was 2.32 µM; with DU-145 prostate, 2.68 µM; with SW-620 colon it was 3.89 µM; in the test with K-562 leukemia it was over 55 µM.

Consider `O=CNc1ncn[nH]1`, for which the TGI in the test with SNB-19 CNS, in the test with OVCAR-4 ovarian, in the test on SK-MEL-2 melanoma, in the test on NCI-H23 lung, in the test on IGROV1 ovarian and in the test on HCT-15 colon was over 100 µM in each case. For the same molecule, the TGI with LOX IMVI melanoma, with DU-145 prostate, in the test with SW-620 colon and with K-562 leukemia was over 100 µM in each case.

With `CNC(=O)OCc1c2ccncc2c(C)c2c1[nH]c1ccccc12`, the TGI was 7.98 µM in the test on SNB-19 CNS; 1.38 µM in the test on OVCAR-4 ovarian; 0.548 µM in the test on SK-MEL-2 melanoma; 0.822 µM in the test with NCI-H23 lung; 1.3 µM in the test with IGROV1 ovarian; 1.76 µM in the test with HCT-15 colon. Besides, the TGI with LOX IMVI melanoma is 0.584 µM; in the test on DU-145 prostate, 6.18 µM; in the test on SW-620 colon it was 2.38 µM; in the test on K-562 leukemia, over 100 µM.

As to `c1cc2[nH]ncc2cc1-c1nc2ccc3[nH]ncc3c2c2c1CCCC2`, the GI50 is 2.35 µM in the test with SNB-19 CNS; 1.97 µM in the test with OVCAR-4 ovarian; 0.509 µM with SK-MEL-2 melanoma; 1.83 µM in the test on NCI-H23 lung; 0.541 µM with IGROV1 ovarian; 0.54 µM in the test on HCT-15 colon. In addition, the GI50 was 0.811 µM with LOX IMVI melanoma, 2.27 µM with DU-145 prostate, 0.441 µM in the test with SW-620 colon and 0.468 µM in the test with K-562 leukemia. For the same molecule, the TGI with SNB-19 CNS was determined as 11 µM; with OVCAR-4 ovarian, 14.4 µM; in the test on SK-MEL-2 melanoma, 2.15 µM; in the test on NCI-H23 lung it was 7.44 µM; in the test with IGROV1 ovarian, 7.29 µM; in the test on HCT-15 colon it was 11.2 µM. Besides, the TGI with LOX IMVI melanoma is 4.54 µM; in the test on DU-145 prostate it was 11.2 µM; in the test on SW-620 colon, 11.2 µM; with K-562 leukemia, over 44 µM.

Consider `CN(C)CCNC(=O)C(C)(C)Oc1ccc(C(=O)c2ccc(Cl)cc2)cc1Cl`, for which the TGI is 26 µM in the test on SNB-19 CNS; 28 µM in the test on OVCAR-4 ovarian; 32.6 µM in the test on SK-MEL-2 melanoma; 21.9 µM in the test on NCI-H23 lung; 25.3 µM in the test with IGROV1 ovarian; 7.12 µM and 11.2 µM in the test with HCT-15 colon. The TGI in the test on LOX IMVI melanoma is 20.1 µM; in the test on DU-145 prostate, 26.1 µM; in the test on SW-620 colon it was 18.3 µM; in the test with K-562 leukemia it was 9.19 µM and > 39 µM. Further, the GI50 with NCI-H23 lung is 4.77 µM; in the test with HCT-15 colon, 2.71 µM; in the test on LOX IMVI melanoma, 0.0392 µM; with DU-145 prostate, 2.7 µM; in the test on K-562 leukemia, 2.42 µM.
